Like-named read-outs stand apart in the source and are kept apart here.
Legend:
Format in all cases: biochemical
[1] = target: 320 wild-type protein kinases (Homo sapiens, UniProt O00506); settings: kinase STK25, singlicate
From the text: (§1) Table S4. Profiling of two compounds at two concentrations against 320 wild-type protein kinases; singlicate measurement; Residual activities (% of control).

[2] = target: T1, 320 wild-type protein kinases (Homo sapiens, UniProt O15530); settings: singlicate
T1 sequence (O15530 1-556): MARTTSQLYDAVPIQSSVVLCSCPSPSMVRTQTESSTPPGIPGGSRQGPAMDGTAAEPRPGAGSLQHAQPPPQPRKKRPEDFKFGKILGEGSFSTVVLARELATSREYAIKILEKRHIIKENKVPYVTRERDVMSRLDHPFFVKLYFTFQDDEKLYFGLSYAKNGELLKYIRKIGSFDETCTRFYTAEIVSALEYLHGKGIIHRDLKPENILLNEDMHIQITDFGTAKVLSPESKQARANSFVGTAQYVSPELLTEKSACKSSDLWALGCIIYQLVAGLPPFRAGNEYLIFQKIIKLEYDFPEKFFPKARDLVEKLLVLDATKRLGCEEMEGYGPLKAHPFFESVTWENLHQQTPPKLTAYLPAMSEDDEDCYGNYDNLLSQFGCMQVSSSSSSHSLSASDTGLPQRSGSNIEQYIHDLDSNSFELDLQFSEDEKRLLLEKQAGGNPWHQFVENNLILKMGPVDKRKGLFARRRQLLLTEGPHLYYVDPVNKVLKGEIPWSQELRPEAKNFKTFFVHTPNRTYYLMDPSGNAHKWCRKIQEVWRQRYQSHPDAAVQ
From the text: as §1

[3] = target: T2, 320 wild-type protein kinases (Homo sapiens, UniProt O43781); settings: singlicate
T2 sequence (O43781 1-588): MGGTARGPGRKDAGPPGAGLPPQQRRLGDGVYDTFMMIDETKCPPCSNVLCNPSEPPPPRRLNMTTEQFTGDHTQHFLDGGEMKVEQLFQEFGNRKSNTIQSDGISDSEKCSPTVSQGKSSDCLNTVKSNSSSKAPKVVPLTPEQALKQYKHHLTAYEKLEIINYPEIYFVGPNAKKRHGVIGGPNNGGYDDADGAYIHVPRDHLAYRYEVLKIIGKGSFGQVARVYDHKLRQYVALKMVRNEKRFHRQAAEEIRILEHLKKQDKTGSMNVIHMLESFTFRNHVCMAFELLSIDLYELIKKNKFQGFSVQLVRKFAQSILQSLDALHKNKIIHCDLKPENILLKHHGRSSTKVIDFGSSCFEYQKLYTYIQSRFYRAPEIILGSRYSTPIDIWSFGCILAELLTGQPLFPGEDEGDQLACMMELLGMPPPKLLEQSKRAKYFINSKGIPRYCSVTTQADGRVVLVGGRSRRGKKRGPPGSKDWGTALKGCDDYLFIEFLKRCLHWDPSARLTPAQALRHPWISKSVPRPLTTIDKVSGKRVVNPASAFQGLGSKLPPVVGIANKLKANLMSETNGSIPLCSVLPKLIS
From the text: as §1

[4] = target: 320 wild-type protein kinases (Homo sapiens, UniProt O75914); settings: singlicate
320 wild-type protein kinases (Homo sapiens, UniProt O75914), sequence (O75914 whole entry): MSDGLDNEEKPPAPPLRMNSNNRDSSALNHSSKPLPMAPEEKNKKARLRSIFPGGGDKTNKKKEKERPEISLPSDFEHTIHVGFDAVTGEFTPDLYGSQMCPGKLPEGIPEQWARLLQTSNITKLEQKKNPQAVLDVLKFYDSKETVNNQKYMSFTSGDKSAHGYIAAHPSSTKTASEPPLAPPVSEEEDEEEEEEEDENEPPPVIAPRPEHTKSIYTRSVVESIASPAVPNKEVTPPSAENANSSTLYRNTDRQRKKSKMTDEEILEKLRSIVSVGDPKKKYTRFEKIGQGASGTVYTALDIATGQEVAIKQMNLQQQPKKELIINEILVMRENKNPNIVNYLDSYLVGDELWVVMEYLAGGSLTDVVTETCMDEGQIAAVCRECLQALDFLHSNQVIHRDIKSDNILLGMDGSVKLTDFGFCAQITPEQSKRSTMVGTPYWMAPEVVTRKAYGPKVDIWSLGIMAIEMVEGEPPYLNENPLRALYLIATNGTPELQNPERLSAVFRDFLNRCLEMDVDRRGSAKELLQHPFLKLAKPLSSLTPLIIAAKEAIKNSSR
From the text: as §1

[5] = target: 320 wild-type protein kinases (Homo sapiens, UniProt P11802); settings: singlicate
320 wild-type protein kinases (Homo sapiens, UniProt P11802), sequence (P11802 whole entry): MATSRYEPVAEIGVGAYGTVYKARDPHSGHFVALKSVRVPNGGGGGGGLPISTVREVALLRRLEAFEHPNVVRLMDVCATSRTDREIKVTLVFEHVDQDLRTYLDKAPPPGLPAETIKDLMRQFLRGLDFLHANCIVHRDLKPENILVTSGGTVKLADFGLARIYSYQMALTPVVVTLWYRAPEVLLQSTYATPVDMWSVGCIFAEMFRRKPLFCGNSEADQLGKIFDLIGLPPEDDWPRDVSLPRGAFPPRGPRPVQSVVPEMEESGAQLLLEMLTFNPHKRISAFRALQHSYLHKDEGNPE
From the text: as §1

[6] = target: 320 wild-type protein kinases (Homo sapiens, UniProt P17612); settings: PKA, singlicate
From the text: as §1

[7] = target: 320 wild-type protein kinases (Homo sapiens, UniProt P22607); settings: singlicate
320 wild-type protein kinases (Homo sapiens, UniProt P22607), sequence (P22607 23-806): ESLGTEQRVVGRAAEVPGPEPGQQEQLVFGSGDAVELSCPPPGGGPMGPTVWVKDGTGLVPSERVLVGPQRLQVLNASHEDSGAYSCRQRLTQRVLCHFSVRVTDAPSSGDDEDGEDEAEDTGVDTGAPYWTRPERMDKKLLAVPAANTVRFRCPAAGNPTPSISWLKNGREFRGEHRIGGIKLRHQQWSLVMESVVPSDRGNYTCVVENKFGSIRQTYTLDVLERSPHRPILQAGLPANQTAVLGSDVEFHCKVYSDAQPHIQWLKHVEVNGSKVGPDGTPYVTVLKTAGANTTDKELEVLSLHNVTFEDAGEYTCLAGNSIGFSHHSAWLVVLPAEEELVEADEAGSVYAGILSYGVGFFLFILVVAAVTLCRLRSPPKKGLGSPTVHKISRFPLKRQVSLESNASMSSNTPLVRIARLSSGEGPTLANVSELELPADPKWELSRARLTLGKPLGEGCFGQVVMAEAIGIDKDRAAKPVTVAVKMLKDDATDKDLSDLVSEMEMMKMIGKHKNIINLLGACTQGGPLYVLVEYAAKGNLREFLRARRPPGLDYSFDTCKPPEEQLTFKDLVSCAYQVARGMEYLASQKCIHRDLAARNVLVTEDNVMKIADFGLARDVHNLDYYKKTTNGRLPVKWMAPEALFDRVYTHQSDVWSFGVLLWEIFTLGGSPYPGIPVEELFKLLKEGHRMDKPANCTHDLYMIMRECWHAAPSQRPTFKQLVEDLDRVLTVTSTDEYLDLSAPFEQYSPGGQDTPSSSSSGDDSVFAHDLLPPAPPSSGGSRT
From the text: as §1

[8] = target: 320 wild-type protein kinases (Homo sapiens, UniProt P31751); settings: singlicate
320 wild-type protein kinases (Homo sapiens, UniProt P31751), sequence (P31751 whole entry): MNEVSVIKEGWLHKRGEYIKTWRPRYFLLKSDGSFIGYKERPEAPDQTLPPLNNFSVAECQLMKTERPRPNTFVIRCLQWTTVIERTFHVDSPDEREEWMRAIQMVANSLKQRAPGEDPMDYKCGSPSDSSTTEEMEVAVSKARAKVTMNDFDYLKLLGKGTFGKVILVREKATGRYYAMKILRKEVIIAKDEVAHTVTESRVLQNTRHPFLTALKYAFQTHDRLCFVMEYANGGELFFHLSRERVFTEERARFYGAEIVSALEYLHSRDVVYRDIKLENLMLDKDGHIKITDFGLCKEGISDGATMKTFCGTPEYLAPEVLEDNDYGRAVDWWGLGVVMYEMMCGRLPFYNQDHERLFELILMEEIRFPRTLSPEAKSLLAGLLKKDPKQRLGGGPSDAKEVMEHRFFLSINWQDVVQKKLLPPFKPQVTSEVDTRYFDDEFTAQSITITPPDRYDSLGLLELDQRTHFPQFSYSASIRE
From the text: as §1

[9] = target: 320 wild-type protein kinases (Homo sapiens, UniProt P32298); settings: singlicate
320 wild-type protein kinases (Homo sapiens, UniProt P32298), sequence (P32298 whole entry): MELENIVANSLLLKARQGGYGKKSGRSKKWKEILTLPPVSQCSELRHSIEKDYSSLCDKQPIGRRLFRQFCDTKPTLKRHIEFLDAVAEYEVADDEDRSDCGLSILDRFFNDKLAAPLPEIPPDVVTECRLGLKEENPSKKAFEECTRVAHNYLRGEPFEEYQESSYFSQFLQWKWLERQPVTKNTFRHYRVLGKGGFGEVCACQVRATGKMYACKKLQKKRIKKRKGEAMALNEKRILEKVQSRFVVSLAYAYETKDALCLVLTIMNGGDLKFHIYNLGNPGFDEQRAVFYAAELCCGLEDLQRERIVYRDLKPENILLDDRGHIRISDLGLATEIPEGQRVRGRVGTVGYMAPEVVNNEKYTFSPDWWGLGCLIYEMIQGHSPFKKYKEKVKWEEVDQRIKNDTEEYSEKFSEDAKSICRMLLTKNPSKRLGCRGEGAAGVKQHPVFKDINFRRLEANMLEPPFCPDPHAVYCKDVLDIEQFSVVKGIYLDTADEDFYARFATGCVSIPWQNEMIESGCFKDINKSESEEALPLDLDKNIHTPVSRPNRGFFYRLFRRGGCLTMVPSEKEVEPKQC
From the text: as §1

[10] = target: T3, 320 wild-type protein kinases (Homo sapiens, UniProt P51813); settings: BMX, singlicate
T3 sequence (P51813 1-675): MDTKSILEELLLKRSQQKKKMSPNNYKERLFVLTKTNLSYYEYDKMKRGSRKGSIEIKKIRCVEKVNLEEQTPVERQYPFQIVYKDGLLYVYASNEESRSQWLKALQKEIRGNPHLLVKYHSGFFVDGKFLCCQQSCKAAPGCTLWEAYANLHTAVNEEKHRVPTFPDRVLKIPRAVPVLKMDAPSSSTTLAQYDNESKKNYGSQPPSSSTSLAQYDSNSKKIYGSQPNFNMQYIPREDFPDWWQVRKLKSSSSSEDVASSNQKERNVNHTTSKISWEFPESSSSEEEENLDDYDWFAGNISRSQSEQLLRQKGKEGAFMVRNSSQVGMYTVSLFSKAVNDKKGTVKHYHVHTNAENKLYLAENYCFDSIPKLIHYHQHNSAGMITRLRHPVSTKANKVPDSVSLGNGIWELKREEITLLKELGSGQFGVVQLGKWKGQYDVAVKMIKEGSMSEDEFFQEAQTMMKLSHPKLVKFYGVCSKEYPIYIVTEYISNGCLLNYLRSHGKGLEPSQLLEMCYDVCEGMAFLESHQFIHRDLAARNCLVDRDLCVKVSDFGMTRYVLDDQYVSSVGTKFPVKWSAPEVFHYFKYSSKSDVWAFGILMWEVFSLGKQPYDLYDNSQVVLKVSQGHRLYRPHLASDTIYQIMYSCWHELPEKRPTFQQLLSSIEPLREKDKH
From the text: as §1

[11] = target: 320 wild-type protein kinases (Homo sapiens, UniProt P53350); settings: singlicate
320 wild-type protein kinases (Homo sapiens, UniProt P53350), sequence (P53350 whole entry): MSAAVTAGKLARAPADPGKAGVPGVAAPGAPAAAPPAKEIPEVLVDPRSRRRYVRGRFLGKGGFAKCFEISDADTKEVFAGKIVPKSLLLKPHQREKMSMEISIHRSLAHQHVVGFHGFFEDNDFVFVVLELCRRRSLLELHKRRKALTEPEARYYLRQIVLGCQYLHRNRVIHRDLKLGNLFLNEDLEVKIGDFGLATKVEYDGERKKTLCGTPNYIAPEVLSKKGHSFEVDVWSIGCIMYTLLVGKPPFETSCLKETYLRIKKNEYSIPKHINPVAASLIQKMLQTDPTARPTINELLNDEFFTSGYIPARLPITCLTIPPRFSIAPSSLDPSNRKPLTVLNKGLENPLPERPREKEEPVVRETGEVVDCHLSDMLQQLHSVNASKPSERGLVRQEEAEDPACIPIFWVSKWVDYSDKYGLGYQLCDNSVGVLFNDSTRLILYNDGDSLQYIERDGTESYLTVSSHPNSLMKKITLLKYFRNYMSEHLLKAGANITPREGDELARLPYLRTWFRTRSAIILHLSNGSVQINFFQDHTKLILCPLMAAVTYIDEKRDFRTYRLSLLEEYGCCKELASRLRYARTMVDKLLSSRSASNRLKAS
From the text: as §1

[12] = target: 320 wild-type protein kinases (Homo sapiens, UniProt Q9UPE1); settings: kinase STK23, singlicate
320 wild-type protein kinases (Homo sapiens, UniProt Q9UPE1), sequence (Q9UPE1 whole entry): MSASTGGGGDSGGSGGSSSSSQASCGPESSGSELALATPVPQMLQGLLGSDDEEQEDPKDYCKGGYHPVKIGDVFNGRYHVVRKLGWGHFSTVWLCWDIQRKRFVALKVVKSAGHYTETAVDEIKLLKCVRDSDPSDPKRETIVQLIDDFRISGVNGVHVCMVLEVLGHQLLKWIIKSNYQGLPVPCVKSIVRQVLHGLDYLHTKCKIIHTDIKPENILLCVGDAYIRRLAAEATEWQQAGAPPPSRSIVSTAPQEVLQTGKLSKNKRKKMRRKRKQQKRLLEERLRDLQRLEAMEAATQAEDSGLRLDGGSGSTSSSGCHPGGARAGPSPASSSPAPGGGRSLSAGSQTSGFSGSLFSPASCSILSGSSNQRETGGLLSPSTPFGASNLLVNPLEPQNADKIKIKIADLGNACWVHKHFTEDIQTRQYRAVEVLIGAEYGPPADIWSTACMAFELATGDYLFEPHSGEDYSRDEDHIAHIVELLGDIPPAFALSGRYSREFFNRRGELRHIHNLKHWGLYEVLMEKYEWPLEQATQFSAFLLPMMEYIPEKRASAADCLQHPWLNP
From the text: as §1

320 wild-type protein kinases (Homo sapiens, UniProt O00506), sequence (O00506 whole entry): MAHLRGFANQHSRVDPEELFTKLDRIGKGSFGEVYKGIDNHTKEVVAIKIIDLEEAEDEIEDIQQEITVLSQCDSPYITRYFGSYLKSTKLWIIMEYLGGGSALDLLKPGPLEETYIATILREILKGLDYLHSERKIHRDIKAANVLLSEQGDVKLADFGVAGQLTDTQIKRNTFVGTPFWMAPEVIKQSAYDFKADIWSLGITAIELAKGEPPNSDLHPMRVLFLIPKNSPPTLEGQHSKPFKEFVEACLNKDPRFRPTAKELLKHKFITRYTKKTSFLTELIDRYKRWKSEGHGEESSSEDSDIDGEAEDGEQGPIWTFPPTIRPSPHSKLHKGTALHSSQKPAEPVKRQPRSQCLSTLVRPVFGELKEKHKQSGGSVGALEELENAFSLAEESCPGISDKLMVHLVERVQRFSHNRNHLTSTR

**Q.** Which results are given for C#Cc1cc(Nc2ncnc3cc(I)ccc23)ccc1Cl [Compound 41]?
**A.** Residual activity, STK25 ([1]; assay conc. 1.0E-06 M): 100 % of control; Residual activity, STK25 ([1]; assay conc. 1.0E-07 M): 95 % of control; Residual activity ([2]; PDK1, 1.0E-06 M): 77 % of control; Residual activity ([2]; PDK1, 1.0E-07 M): 96 % of control; Residual activity ([3]; DYRK3, 1.0E-06 M): 81 % of control; Residual activity ([3]; DYRK3, 1.0E-07 M): 96 % of control; Residual activity ([4]; PAK3, 1.0E-06 M): 75 % of control; Residual activity ([4]; PAK3, 1.0E-07 M): 96 % of control; Residual activity ([5]; CDK4/CycD1, 1.0E-06 M): 79 % of control; Residual activity ([5]; CDK4/CycD1, 1.0E-07 M): 75 % of control; Residual activity ([5]; CDK4/CycD3, 1.0E-06 M): 87 % of control; Residual activity ([5]; CDK4/CycD3, 1.0E-07 M): 94 % of control; Residual activity ([6]; 1.0E-06 M): 82 % of control; Residual activity ([6]; 1.0E-07 M): 88 % of control; Residual activity ([7]; FGF-R3, 1.0E-06 M): 93 % of control; Residual activity ([7]; FGF-R3, 1.0E-07 M): 99 % of control; Residual activity ([8]; AKT2 aa107-481, 1.0E-06 M): 86 % of control; Residual activity ([8]; AKT2 aa107-481, 1.0E-07 M): 98 % of control; Residual activity ([9]; GRK4, 1.0E-06 M): 113 % of control; Residual activity ([9]; GRK4, 1.0E-07 M): 128 % of control; Residual activity ([10]; 1.0E-06 M): 77 % of control; Residual activity ([10]; 1.0E-07 M): 86 % of control; Residual activity ([11]; PLK1, 1.0E-06 M): 98 % of control; Residual activity ([11]; PLK1, 1.0E-07 M): 98 % of control; Residual activity, STK23 ([12]; assay conc. 1.0E-06 M): 94 % of control; Residual activity, STK23 ([12]; assay conc. 1.0E-07 M): 93 % of control

**Q.** With C#Cc1cc(Nc2ncnc3cc(OC)c(OC)cc23)ccc1Cl [Compound 45] as the compound, how does the “Residual activity, STK25” value ([1]; assay conc. 1.0E-06 M) read?
**A.** The value was 104 % of control.

**Q.** What about the “Residual activity, STK25” value ([1]; assay conc. 1.0E-07 M) of the same compound?
**A.** The value was 111 % of control.

**Q.** And the Residual activity ([2]; PDK1, 1.0E-06 M)?
**A.** The Residual activity was 79 % of control.

**Q.** What about the Residual activity ([2]; PDK1, 1.0E-07 M) of the same compound?
**A.** The Residual activity was 93 % of control.

**Q.** What about the Residual activity ([3]; DYRK3, 1.0E-06 M) of the same compound?
**A.** Its Residual activity is 69 % of control.

**Q.** And the Residual activity ([3]; DYRK3, 1.0E-07 M)?
**A.** The Residual activity was 97 % of control.

**Q.** And the Residual activity ([4]; PAK3, 1.0E-06 M)?
**A.** Its Residual activity is 92 % of control.

**Q.** What about the Residual activity ([4]; PAK3, 1.0E-07 M) of the same compound?
**A.** The Residual activity was 98 % of control.

**Q.** What about the Residual activity ([5]; CDK4/CycD1, 1.0E-06 M) of the same compound?
**A.** Its Residual activity is 95 % of control.

**Q.** And the Residual activity ([5]; CDK4/CycD1, 1.0E-07 M)?
**A.** Its Residual activity is 87 % of control.

**Q.** What about the Residual activity ([5]; CDK4/CycD3, 1.0E-06 M) of the same compound?
**A.** The Residual activity was 87 % of control.

**Q.** What about the Residual activity ([5]; CDK4/CycD3, 1.0E-07 M) of the same compound?
**A.** Its Residual activity is 94 % of control.

**Q.** And the Residual activity ([6]; 1.0E-06 M)?
**A.** Its Residual activity is 90 % of control.

**Q.** What about the Residual activity ([6]; 1.0E-07 M) of the same compound?
**A.** The Residual activity was 93 % of control.

**Q.** And the Residual activity ([7]; FGF-R3, 1.0E-06 M)?
**A.** Its Residual activity is 70 % of control.

**Q.** What about the Residual activity ([7]; FGF-R3, 1.0E-07 M) of the same compound?
**A.** Its Residual activity is 79 % of control.

**Q.** What about the Residual activity ([8]; AKT2 aa107-481, 1.0E-06 M) of the same compound?
**A.** The Residual activity was 94 % of control.

**Q.** What about the Residual activity ([8]; AKT2 aa107-481, 1.0E-07 M) of the same compound?
**A.** The Residual activity was 112 % of control.

**Q.** What about the Residual activity ([9]; GRK4, 1.0E-06 M) of the same compound?
**A.** The Residual activity was 126 % of control.

**Q.** And the Residual activity ([9]; GRK4, 1.0E-07 M)?
**A.** Its Residual activity is 121 % of control.

**Q.** What about the Residual activity ([10]; 1.0E-06 M) of the same compound?
**A.** Its Residual activity is 81 % of control.

**Q.** What about the Residual activity ([10]; 1.0E-07 M) of the same compound?
**A.** Its Residual activity is 92 % of control.

**Q.** What about the Residual activity ([11]; PLK1, 1.0E-06 M) of the same compound?
**A.** Its Residual activity is 77 % of control.

**Q.** What about the Residual activity ([11]; PLK1, 1.0E-07 M) of the same compound?
**A.** The Residual activity was 91 % of control.

**Q.** And the “Residual activity, STK23” value ([12]; assay conc. 1.0E-06 M)?
**A.** Its value is 87 % of control.

**Q.** What about the “Residual activity, STK23” value ([12]; assay conc. 1.0E-07 M) of the same compound?
**A.** Its value is 97 % of control.
